“And” between values parts separate entries of the source, which are not always exact repeats. Equal values may be shown once.
Assays:
[1] = tested on: SNU-C1; experiment: K-Ras Wnt synthetic lethal, SNU-C1 KrasSL; format: cell-based; conditions: Homo sapiens, read-out: SNU-C1 KrasSL % Inhibit
From the text: (§1) Selected compounds of this invention were screened for K-Ras Wnt synthetic lethal, anti-angiogenic activity, Wnt pathway modulatory activity, insulin and GLP-1 secretion modulatory activity, GPR119 receptor agonist activity, mGlu2R antagonist activity, CGRP receptor antagonist activity, Apelin receptor agonist activity and hexokinase 2 inhibitory activity using the PD^2 and TD^2 Screening Panel (Eli Lilly & Company). See Lee, et al. (2011) J. Biomol. Screen. 16:588-602.

[2] = molecular target: T1, hGPR119 (Homo sapiens, UniProt Q8TDV5); experiment: GPR119 receptor agonist, hGPR119 agonism; format: cell-based; conditions: @ 10 μM
T1 sequence (Q8TDV5 1-335): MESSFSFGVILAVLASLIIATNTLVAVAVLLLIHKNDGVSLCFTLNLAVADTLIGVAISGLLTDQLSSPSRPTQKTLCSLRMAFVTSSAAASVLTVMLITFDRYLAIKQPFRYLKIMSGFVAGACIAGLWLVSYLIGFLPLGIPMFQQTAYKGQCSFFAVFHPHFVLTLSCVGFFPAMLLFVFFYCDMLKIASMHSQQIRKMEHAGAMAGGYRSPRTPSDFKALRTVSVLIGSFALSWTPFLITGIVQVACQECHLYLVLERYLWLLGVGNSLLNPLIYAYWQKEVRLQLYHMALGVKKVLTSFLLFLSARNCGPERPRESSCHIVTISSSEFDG
From the text: as §1

[3] = tested on: hNCI-H716; experiment: hNCI-H716 GLP-1 secretion; format: cell-based
From the text: as §1
(§2) In light of the above results, additional compounds (Table 7) were prepared and phenotypic assays were carried out using hNCI-H716 and mSTC-1 cell lines to monitor GLP-1 secretion (single point (SP) and concentration response curves (CRC)) (Table 8), as well as a secondary assay with pituitary cells (Table 9).

[4] = tested on: GIP; experiment: Plasma GIP response to oral compound in mice; format: in vivo, Mice (male C57BL/6); conditions: oral 100 mg/kg, plasma 30 minutes post-dose
Protocol: (§3) Mice (male C57BL/6, 8-10 weeks of age) were fasted overnight by being placed in a clean cage without food. The next day, all mice were weighed and assigned to groups of similar body weights. Test compounds were formulated in 1% HEC, 0.25% TWEEN 80, 0.05% antifoam (vehicle control). Compounds 11ls and llu were orally dosed (100 mg/kg) and cardiac sticks were done on CO2 euthanized mice at 30 minutes post-dose. Blood (500+μL whole blood) from the cardiac stick was placed in chilled EDTA-plasma tubes with inhibitors, DPP4 inhibitor (5 μL/500 μL blood) and aprotinin (bovine lung, […]/500 μL blood), and stored on ice. Plasma was separated by centrifugation and aliquoted for compound exposure to total GIP and GLP-1 (X-36 amide). Plates for compound exposure were analyzed for absorption, distribution, metabolism, and excretion, while conventional kits were used for GLP-1 (x-36) amide (Mesoscale) and GIP (Millipore) analyses.

[5] = molecular target: T2, hHK2 (Homo sapiens, UniProt P52789); experiment: Hexokinase 2 inhibitor, hHK2 ADP-FP; format: biochemical
T2 sequence (P52789 1-917): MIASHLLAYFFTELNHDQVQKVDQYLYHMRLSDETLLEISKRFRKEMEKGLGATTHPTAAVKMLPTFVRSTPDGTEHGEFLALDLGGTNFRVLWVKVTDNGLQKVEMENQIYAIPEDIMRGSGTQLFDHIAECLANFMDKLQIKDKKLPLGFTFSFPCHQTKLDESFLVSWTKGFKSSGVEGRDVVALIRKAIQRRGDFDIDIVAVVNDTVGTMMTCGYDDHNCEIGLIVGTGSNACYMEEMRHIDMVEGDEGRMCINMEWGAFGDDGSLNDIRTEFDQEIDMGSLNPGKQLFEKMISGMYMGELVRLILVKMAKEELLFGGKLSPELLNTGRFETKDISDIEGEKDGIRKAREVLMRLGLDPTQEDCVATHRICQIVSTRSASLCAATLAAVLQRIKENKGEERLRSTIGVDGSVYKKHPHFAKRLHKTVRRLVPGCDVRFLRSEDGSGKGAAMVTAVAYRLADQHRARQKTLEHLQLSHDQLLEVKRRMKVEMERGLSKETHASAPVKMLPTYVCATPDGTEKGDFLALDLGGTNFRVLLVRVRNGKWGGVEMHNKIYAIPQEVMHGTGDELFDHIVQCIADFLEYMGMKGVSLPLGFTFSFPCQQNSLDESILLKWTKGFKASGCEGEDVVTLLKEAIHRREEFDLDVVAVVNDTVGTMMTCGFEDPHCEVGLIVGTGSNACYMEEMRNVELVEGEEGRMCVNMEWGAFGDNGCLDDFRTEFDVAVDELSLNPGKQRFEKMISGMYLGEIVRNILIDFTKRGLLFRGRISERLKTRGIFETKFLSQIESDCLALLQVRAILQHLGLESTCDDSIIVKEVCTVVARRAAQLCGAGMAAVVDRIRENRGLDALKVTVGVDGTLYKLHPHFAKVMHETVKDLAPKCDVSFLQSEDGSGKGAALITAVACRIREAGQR
From the text: as §1

[6] = tested on: GLP-1 (X-36 amide); experiment: Plasma GLP-1 response to oral compound in mice; format: in vivo, Mice (male C57BL/6); conditions: oral 100 mg/kg, plasma 30 minutes post-dose
Protocol: as §3

[7] = tested on: hNCI-H716; experiment: hNCI basal LDH secretion; format: cell-based; conditions: read-out: Primary CRC (EC50, μM) hNCI Basal
Protocol: as §2

[8] = tested on: Co1o320; experiment: K-Ras Wnt synthetic lethal, Co1o320 KrasSL; format: cell-based; conditions: read-out: Co1o320 KrasSL % Inhibit
From the text: as §1

[9] = molecular target: hCGRP1 (Homo sapiens, UniProt O60894+Q16602); experiment: CGRP receptor antagonist, hCGRP1 antagonism; format: cell-based
hCGRP1, sequence (Q16602 23-461): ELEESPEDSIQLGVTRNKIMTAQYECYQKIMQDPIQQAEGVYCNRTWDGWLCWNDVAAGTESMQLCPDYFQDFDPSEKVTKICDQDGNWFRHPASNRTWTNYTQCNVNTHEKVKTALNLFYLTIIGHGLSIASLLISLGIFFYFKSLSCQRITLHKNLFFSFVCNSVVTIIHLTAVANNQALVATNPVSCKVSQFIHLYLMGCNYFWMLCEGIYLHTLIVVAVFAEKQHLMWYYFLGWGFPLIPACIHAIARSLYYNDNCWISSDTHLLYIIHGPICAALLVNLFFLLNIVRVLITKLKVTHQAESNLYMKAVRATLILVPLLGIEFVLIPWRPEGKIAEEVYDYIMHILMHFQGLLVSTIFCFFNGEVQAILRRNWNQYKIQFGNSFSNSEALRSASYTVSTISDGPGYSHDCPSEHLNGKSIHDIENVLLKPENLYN
hCGRP1, sequence (O60894 27-148 partner): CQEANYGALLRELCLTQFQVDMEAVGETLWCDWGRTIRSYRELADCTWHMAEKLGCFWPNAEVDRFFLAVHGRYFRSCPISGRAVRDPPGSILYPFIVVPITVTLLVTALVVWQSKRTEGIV
From the text: as §1

[10] = tested on: Pituitary Cells; experiment: Secondary assay, pituitary cells growth hormone secretion; format: cell-based; conditions: @ 3.3 μM
Protocol: as §2

[11] = tested on: Angio Tube Area; experiment: Anti-angiogenic activity, Angio Tube Area; format: cell-based; conditions: read-out: Angio Tube Area % Inhibit
From the text: as §1

[12] = Plasma compound exposure after oral dosing in mice; format: in vivo, Mice (male C57BL/6); conditions: male, C57BL/6, mouse, plasma, oral 100 mg/kg, 30 minutes post-dose, read-out: mean (±standard deviation) plasma levels
Protocol: as §3

[13] = molecular target: hMGLUR2 (Homo sapiens, UniProt Q14416); experiment: mGlu2R antagonist, hMGLUR2; format: cell-based
hMGLUR2, sequence (Q14416 19-872): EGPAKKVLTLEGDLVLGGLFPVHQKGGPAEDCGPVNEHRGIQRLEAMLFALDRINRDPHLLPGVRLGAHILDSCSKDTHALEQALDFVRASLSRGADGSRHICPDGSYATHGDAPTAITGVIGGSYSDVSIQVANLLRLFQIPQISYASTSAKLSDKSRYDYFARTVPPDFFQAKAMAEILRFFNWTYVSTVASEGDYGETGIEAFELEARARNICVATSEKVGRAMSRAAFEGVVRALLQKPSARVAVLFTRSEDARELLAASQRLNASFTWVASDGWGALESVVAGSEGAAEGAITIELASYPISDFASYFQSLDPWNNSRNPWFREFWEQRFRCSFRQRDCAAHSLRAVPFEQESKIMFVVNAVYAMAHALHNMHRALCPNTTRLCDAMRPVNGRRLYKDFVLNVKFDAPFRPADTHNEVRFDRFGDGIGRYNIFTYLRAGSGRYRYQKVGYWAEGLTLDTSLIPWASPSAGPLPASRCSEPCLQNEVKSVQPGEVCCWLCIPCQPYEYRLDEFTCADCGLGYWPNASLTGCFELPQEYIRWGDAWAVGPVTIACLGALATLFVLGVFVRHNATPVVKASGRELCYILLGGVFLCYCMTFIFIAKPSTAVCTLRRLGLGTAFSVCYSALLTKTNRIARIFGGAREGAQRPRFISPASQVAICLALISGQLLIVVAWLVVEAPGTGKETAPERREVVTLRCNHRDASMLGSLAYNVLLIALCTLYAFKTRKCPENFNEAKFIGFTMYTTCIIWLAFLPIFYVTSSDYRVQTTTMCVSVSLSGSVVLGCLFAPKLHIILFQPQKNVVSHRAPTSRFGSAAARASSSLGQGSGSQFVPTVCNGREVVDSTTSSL
From the text: as §1

hGPR119 agonism % Stimulation [2]: −5.1%
EC50 ([3]; GLP-1 secretion, concentration response curve, read-out: Primary CRC (EC50, μM) hNCI): 34.8 µM and 33.5 µM and 23.2 µM and > 40 µM
EC50 ([3]; average of three independent experiments, read-out: hNCI GLP-1 Secretion EC50): 34.8 µM
EC50 ([3]; secretion and/or production of GLP-1, read-out: EC50 values (Table 6)): 35 µM
inhibition at 20 µM [5]: 5.5%
EC50 [7]: > 40 µM
inhibition at 30 µM [9]: 77.1%
concentration at 30 min [12]: 412 ± 88.2 ng/mL
inhibition at 50 µM [13]: -20.4%
SMILES: CC1(C)c2c([nH]c3ccc(Cl)cc23)C2C=CC1C2 (stereo not drawn) [Compound 11s]
inhibition at 0.2 µM ([1]; @ 0.2 μM): 15.7%
inhibition at 2 µM ([1]; @ 2 μM): 5.5%
inhibition at 20 µM ([1]; @ 20 μM): 106%
activation at 2 µM ([3]; 2 μM, GLP-1 secretion, single point, read-out: Primary SP hNCI (% Stim.)): -1.7%
activation at 20 µM ([3]; 20 μM, GLP-1 secretion, single point, read-out: Primary SP hNCI (% Stim.)): 108%
hNCI GLP-1 Secretion % Stimulation ([3]; @ 2 μM): −1.7%
hNCI GLP-1 Secretion % Stimulation ([3]; @ 20 μM): 108%
Avg. GIP (pg/mL) ±SEM [4]: 23.42 ± 7.44 pg/mL
Avg. GLP-1 (pg/mL) ±SEM [6]: 5.52 ± 1.18 pg/mL
inhibition at 0.2 µM ([8]; @ 0.2 μM): 33.3%
inhibition at 2 µM ([8]; @ 2 μM): 15.8%
inhibition at 20 µM ([8]; @ 20 μM): 150%
Pituitary Cells (Growth Hormone Secretion, % Stimulation) [10]: −10.0% and −17.7% and −18.6%
inhibition at 2 µM ([11]; @ 2 μM): 21.7%
inhibition at 10 µM ([11]; @ 10 μM): 21.8%

— patent US9598365B2, “Method for synthesizing cycloalkanyl[b]indoles, cycloalkanyl[b]benzofurans, cycloalkanyl[b]benzothiophenes, compounds and methods of use” (Trustees of Dartmouth College, priority 2012, dated 2017)
